The text below walks through data of publication PMC9853328, “Potent Platinum(IV) Prodrugs That Incorporate a Biotin Moiety to Selectively Target Cancer Cells” (Pharmaceutics, 2022).

Data set [1] relates to non-cancerous MCF10A breast cell line. Briefly: MTT in vitro cytotoxicity assay, MCF10A. The data set is classed as cell-based. As to conditions: 72 h drug exposure, n = 3, read-out: GI50 ± SEM, MCF10A. The method, then:
(§1) The in vitro cytotoxicity assays were undertaken at Calvary Mater Hospital, Waratah, NSW, Australia, following a method previously published in the literature. A stock solution for each compound was prepared in DMSO (30 mM) and stored at −20 °C. The cell lines used in the study include HT29 colon, U87 glioblastoma, MCF-7 breast, A2780 ovarian, H460 lung, A431 skin, Du145 prostate, BE2-C neuroblastoma, SJ-G2 glioblastoma, MIA pancreas, and cisplatin-resistant ADDP ovarian (subclone of A2780) cancer cells, as well as the non-cancerous-derived MCF10A breast cell line. The cancer cell lines were cultured in a humidified atmosphere 5% CO2 at 37 °C and maintained in Dulbecco’s modified Eagle’s medium (Trace Biosciences, Sydney, Australia), supplemented with 10% foetal bovine serum, sodium bicarbonate (10 mM), penicillin (100 IU/mL), streptomycin (100 µg/mL), and glutamine (4 mM). The non-cancerous MCF10A cell line was maintained in DMEM:F12 (1:1) cell culture media, with 5% heat inactivated horse serum, supplemented with penicillin (50 IU/mL), streptomycin (50 µg/mL), glutamine (2 mM), HEPES (20 mM), epidermal growth factor (20 ng/mL), hydrocortisone (500 ng/mL), cholera toxin (100 ng/mL), and insulin (10 µg/mL). Cells were plated in duplicate in medium (100 µL) at a density of 2500–4000 cells per well in 96-well plates. On day 0, (24 h after plating) when the cells were in logarithmic growth, medium (100 μL) with or without the test agent was added to each well. The growth inhibitory effects were evaluated after 72 h drug exposure, using the MTT (3-(4,5-dimethylthiazol-2-yl)-2,5-diphenyltetrazolium bromide) assay, with the absorbance read at 540 nm. An eight-point dose–response curve was produced, which was used to determine the concentration at which growth was inhibited by 50% (GI50). This calculation was based on the difference between the optical density values on day 0 and those at the end of drug exposure. […] Experiments were conducted on three separate occasions and GI50 values were reported as the mean and standard error of the mean.

The nature of data set [2]: Lipophilicity by RP-HPLC (logkw). The format is physicochemical. As to conditions: capacity factor in 100% water. The method, then: HPLC experiments were carried out using an Agilent Technologies (Melbourne, Australia) 1260 Infinity instrument, equipped with a Phenomenex (Sydney, Australia) Onyx^TM Monolithic C18 reverse phase column (100 × 4.6 mm, 130 Å). The mobile phase was made up of 0.06% TFA in water (solvent A) and 0.06% TFA in an acetonitrile:water (9:1) mixture (solvent B). Samples were eluted over a gradient of 0–100% (% B) for 15 min, at a flow rate of 1 mL/min, with a sample injection volume of 10 µL. Eluting peaks were detected using a PDA at 254 nm.
For lipophilicity experiments, RP-HPLC was utilised to determine the logkw of each compound, similarly to what has been previously published for similar complexes. Samples were eluted at various isocratic percentages, ranging from 18–30% solvent B. To determine the dead volume of the column, potassium iodide was used as an external dead volume marker. The retention time of each sample in each isocratic run ( tr ) and the dead volume time ( t0 ) were both substituted in Equation (1) to calculate the capacity factor ( k ). (1) k=tr−t0/t0
Following this, logk was plotted against the percentage of ACN. For each complex, a minimum of four concentrations of ACN were used. This produced a linear graph with the equation in the form:(2) logk=Sφ+logkw where S is the slope, φ is the percentage of ACN, and logkw is the y-intercept, which represents the capacity factor of the compound in 100% water.
It is important to explore the lipophilicity of a drug, as it is widely believed that increased lipophilicity results in greater cellular accumulation. To understand the lipophilicity of 1–4, RP-HPLC was utilised to determine the logkw of each complex. To calculate this, each complex was eluted at different isocratic percentages, whereby the retention time was used in Equation (1) to calculate the capacity factor (k). The percentage of the organic solvent was then plotted against log k for each isocratic percentage, producing a linear equation that allowed for logkw to be deduced using Equation (2) (Figure S38). The logkw value represents the capacity factor of the compound in 100% water and can be used to compare a series of compounds. Since 1–4 comprise the same axially bound ligand, biotin, the lipophilicity was influenced by the groups on the PL. The logkw of each complex is presented in Table 1, with their corresponding PL. The increasing lipophilicity of the complexes followed the order: 1 < 4 < 2 < 3.

Data set [3] deals with BE2-C neuroblastoma cells. Briefly: MTT in vitro cytotoxicity assay, BE2-C. The data set is classed as cell-based. The settings on record: 72 h drug exposure, n = 3, read-out: GI50 ± SEM, BE2-C. The method, then: as §1
Data set [4] deals with cisplatin-resistant ADDP ovarian (subclone of A2780) cancer cells. Briefly: MTT in vitro cytotoxicity assay, ADDP. The settings on record: 72 h drug exposure, n = 3, read-out: GI50 ± SEM, ADDP. The format is cell-based. The method, then: as §1
The nature of data set [5]: Reduction study with ascorbic acid via 1H NMR. The format is physicochemical. The settings on record: 5 mM complex in D2O with 10X PBS, ascorbic acid 5 mM, 37 °C, four experiments. The method, then:
To confirm that the reduction of these prodrugs occurs and the axially bound biotin ligands are released from the cytotoxic platinum(II) core, reduction studies were undertaken using ^1H NMR experiments for 3. The complex was prepared in 5 mM D2O with 10X PBS. Ascorbic acid (5 mM) was added, and the reduction was monitored at 37 °C by ^1H NMR experiments. Over time, the resonances corresponding to the platinum(IV) species decreased, while new resonances corresponding to the platinum(II) species increased (Figure 7).

The test system of data set [6] is MCF-7 (breast cancer) cells. Description: Cellular platinum uptake by ICP-MS, MCF-7. The format is cell-based. As to conditions: 0.1 µM, 4 h, ICP-MS. The method, then: Cellular uptake studies were carried out in MCF-7 (breast cancer) and MCF10A (healthy breast) cell lines. Reported in Table S2 are the numbers of cells per well that were seeded onto 12-well plates for each replicate and cell line. After incubating overnight at 37 °C, the cell culture medium was replaced with fresh media containing the test compounds at concentrations of 1.0 and 0.1 µM. After incubating for 4 h, the medium was removed, the cells were washed with PBS twice, and then incubated with trypsin solution until the cells dissociated from the plate. The harvested cells were then placed into an Eppendorf tube and PBS was added to a volume of 1 mL. Cell numbers were determined using trypan blue staining. Cell pellets were obtained after centrifugation and the cells were dispersed in 50 µL of MilliQ™ water and stored immediately at −20 °C until platinum analysis was conducted. These experiments were repeated in triplicate on three separate occasions.
Sixty-nine percent HNO3 (50 µL) was added to each sample and digested at 80 °C for 1.5 h, before being taken up to 1 mL with H2O. The platinum analysis was conducted using a PerkinElmer (Melbourne, Australia) NexION™ 300X inductively coupled plasma mass spectrometer (ICP-MS). A four-point calibration curve was produced by serial dilution of a certified platinum reference standard. The calibration was linear over the working range (R^2 > 0.9999) and the most abundant platinum isotope (m/z = 195) was monitored. The average values for three independent experiments were reported with standard deviations.

“And” between values parts separate entries of the source, which are not always exact repeats. Identical values can stand only once.

Consider `COc1cc[n+]2c3c1ccc1c(OC)cc[n+](c13)[Pt-2]21([OH])([O]C(=O)CCCC[C@@H]2SC[C@@H]3NC(=O)N[C@@H]32)[NH2+][C@H]2CCCC[C@@H]2[NH2+]1.O=[N+]([O-])[O-].O=[N+]([O-])[O-]` [Complex 3, [Pt(4,7-dimethoxy-1,10-phenanthroline)(1S,2S-diaminocyclohexane)(biotin)(hydroxido)](NO3)2], for which the 50% growth inhibitory concentration (GI50) (in general, the concentration giving 50% growth inhibition) in data set [1] was determined as 300 ± 80 nM; in data set [3] it was 2000 ± 70 nM; in data set [4] it was 170 ± 20 nM. The compound further showed a logkw in data set [2] of 0.96. Moreover, in data set [5], the reduction half-life is ~ 30 ± 7 min and ~ 30 min. Moreover, in data set [6], the “cellular platinum uptake in MCF-7” value is reported as “greatest uptake”. In addition, the “fold greater uptake in MCF-7 compared to MCF10A” value in data set [6] is approximately 3 fold.
